Data as given in patent US9631196B2, “Genetic manipulation and expression systems for Pucciniomycotina and Ustilaginomycotina subphyla” (priority 2011, dated 2017).
Read-outs that look alike come from different tables or passages of the source.

Experiments:
U maydis spheroplasts = assay type: cell-based, Ustilago maydis
Source text: (§1) cyp1 (um11812) and ptf1 (um02713) genes were chosen for the comparison of gene-targeting frequency, which can be monitored by the loss of ustilagic acids (UA) production and the loss of Fuz^+ colonies, respectively. Gene deletion constructs, pKOcyp1 and pKOprf1, were made by one-step ligation of four fragments. pKOcyp1 is composed of the 2.0-kb HindIII-PacI fragment containing the Pgpd::hpt cassette, the 8.7 kb NcoI-KpnI fragment from pEX2tk, the 1405 bp NcoI-HindIII and the 1076 bp PacI-KpnI PCR product derived from the upstream and downstream regions of the cyp1 ORF. The oligo pairs Cyp1L-Nf/Cyp1L-Hr (SEQ ID NO:29/SEQ ID NO:30) and Cyp1R-Pf/Cyp1R-Kr (SEQ ID NO:31/SEQ ID NO:32) were used for the amplification of upstream and downstream region, respectively. pKOprf1 was made similarly except the PCR product of oligo pairs Prf1L-Nf/Prf1L-Hr (SEQ ID NO:33/SEQ ID NO:34) and Prf1R-Pf/Prf1R-Kr (SEQ ID NO:35/SEQ ID NO:36) were used as the upstream and downstream homology region, respectively. Correct strains were identified by colony PCR using Taq DNA polymerase based on the size of the expected constructs using oligos LB/Cyp1L-Nf (SEQ ID NO:37/SEQ ID NO:29) and LB/Prf1L-Nf (SEQ ID NO:37/SEQ ID NO:33) for cyp1Δ and prf1Δ respectively. The same construction and identification techniques were applied to generate other gene deletion mutants in this study.
PEG-mediated transformation of U maydis spheroplasts were done as described previously (Kämper, 2004). Briefly, the 4.5 kb cyp1 and prf1 gene deletion cassettes were amplified from pKOcyp1 and pKOprf1 using the Expand Long System (Roche Diagnosis, USA) and oligos Cyp1L-Nf/Cyp1R-Kr (SEQ ID NO:29/SEQ ID NO:32) and Prf1L-Nf/Prf1R-Kr (SEQ ID NO:33/SEQ ID NO:36), respectively. The PCR products were gel purified (Qiagen, Germany) and used for transformation. […]

U. maydis L8 and SG200 = assay type: cell-based, Ustilago maydis; conditions: for cyp1Δ (%) gene knockout frequency / prf1 Δ (%) gene knockout frequency: co-culture 2 days
Source text: as §1
Similar results were obtained when knockout was performed via the ATMT transformation (Table 9).

[1] = NU7026 1 μM in top and bottom regeneration media, 3 days, out of 288 transformants

O=c1cc(N2CCOCC2)oc2c1ccc1ccccc12 [NU7026, 2-(morpholin-4-yl)-benzo[h]chomen-4-one; 2-(4-morpholinyl)-4H-naphthol[1,2-b]pyran-4-one]
cyp1Δ gene knockout frequency (U maydis spheroplasts; [1]): 16.67% | prf1Δ gene knockout frequency (U maydis spheroplasts; [1]): 26.39% | increase of gene knockout frequency (U maydis spheroplasts; both cyp1 and prf1, NU7026 1 μM vs control): about 3 folds | cyp1Δ (%) gene knockout frequency (U. maydis L8 and SG200; NU7026 0.1 μM): 8.3% | prf1 Δ (%) gene knockout frequency (U. maydis L8 and SG200; NU7026 0.1 μM): 11.4% | cyp1Δ (%) gene knockout frequency (U. maydis L8 and SG200; NU7026 1 μM): 18.8% | prf1 Δ (%) gene knockout frequency (U. maydis L8 and SG200; NU7026 1 μM): 25.1% | cyp1Δ (%) gene knockout frequency (U. maydis L8 and SG200; NU7026 5 μM): 10.4% | prf1 Δ (%) gene knockout frequency (U. maydis L8 and SG200; NU7026 5 μM): 12.7% | cyp1Δ (%) gene knockout frequency (U. maydis L8 and SG200; NU7026 10 μM): 8.3% | prf1 Δ (%) gene knockout frequency (U. maydis L8 and SG200; NU7026 10 μM): 8.7% | cyp1Δ (%) gene knockout frequency (U. maydis L8 and SG200; NU7026 50 μM): 7.4% | prf1 Δ (%) gene knockout frequency (U. maydis L8 and SG200; NU7026 50 μM): 8.5% | total number of transformants obtained in 5 transformation plates (U. maydis L8 and SG200; cyp1Δ, NU7026 0.1 μM): 601 | total number of transformants obtained in 5 transformation plates (U. maydis L8 and SG200; cyp1Δ, NU7026 1 μM): 496 | total number of transformants obtained in 5 transformation plates (U. maydis L8 and SG200; cyp1Δ, NU7026 5 μM): 413 | total number of transformants obtained in 5 transformation plates (U. maydis L8 and SG200; cyp1Δ, NU7026 10 μM): 96 | total number of transformants obtained in 5 transformation plates (U. maydis L8 and SG200; cyp1Δ, NU7026 50 μM): 68 | total number of transformants obtained in 5 transformation plates (U. maydis L8 and SG200; prf1Δ, NU7026 0.1 μM): 642 | total number of transformants obtained in 5 transformation plates (U. maydis L8 and SG200; prf1Δ, NU7026 1 μM): 554 | total number of transformants obtained in 5 transformation plates (U. maydis L8 and SG200; prf1Δ, NU7026 5 μM): 361 | total number of transformants obtained in 5 transformation plates (U. maydis L8 and SG200; prf1Δ, NU7026 10 μM): 172 | total number of transformants obtained in 5 transformation plates (U. maydis L8 and SG200; prf1Δ, NU7026 50 μM): 59
